Data taken from patent US9550815B2, “ABC terpenoid transporters and methods of using the same” (priority 2012, dated 2017).

Key:
[1] = test system: mutant Δgcabc-g1 fungal spores; assay: Asexual spore germination and survival with monoterpenes; type: cell-based, Grosmannia clavigera
Method: (§1) G. clavigera WT or mutant Δgcabc-g1 fungal spores were collected from 7-14 day old cultures grown on MEA (0.83% Oxoid™ malt extract agar and 0.75% technical agar, pH was adjusted to 5-6). Mycelium debris was removed by filtration (BD Falcon Cell Strainers; cat #08-771-1). Spore concentrations were determined using a haemocytometer and further diluted to ˜2 spores/μL. 100 μL of the spore suspension was spread on MEA in glass plates. For monoterpene treatment, two (2×4 cm) strips of filter paper were placed inside the lid of the plate and 200 μL of a mixture of monoterpenes were added onto the filter paper. For diterpene treatment, 100 μL of the spore suspension was spread on MEA containing 0.01% of a mixture of diterpenes (abietic acid, dehydroabietic acid and isopimaric acid). The glass plates were sealed with DuraSeal™ film (Laboratory Sealing Film, VWR, cat #89031-573) and incubated at ˜22° C. in a sealed glass container. The germinated spores were counted daily; at day 6 the monoterpenes were removed and the MEA plates were further incubated for 4 days to assess the survival of the spores.

[2] = test system: G. clavigera WT fungal spores; assay: as above; type: cell-based, Grosmannia clavigera; settings: MEA, 200 μL monoterpene; for spore germination inhibition, G. clavigera: counted after 6 days; for spore germination partially reduced, G. clavigera: 6 days, relative to non-treated control
Method: as §1

mutant Δgcabc-g1 [3] = assay: Mycelium growth on MEA with monoterpenes; type: cell-based, Grosmannia clavigera; settings: for growth delay of mutant Δgcabc-g1: 200 μL individual monoterpene or MT; for fungal growth rate, mutant Δgcabc-g1 / growth rate of mutant Δgcabc-g1 lower than G. clavigera WT: 200 μL monoterpene; for fungal growth rate, mutant Δgcabc-g1: linear phase after delay
Method: (§2) Mono- and diterpene treatments were performed on glass petri dishes with the mono- and diterpenes applied to filter paper that was placed in the cover of the petri dish, which was sealed by Duraseal film. Specifically, plugs of actively growing G. clavigera fungal cultures on MEA were transferred into the center of glass petri dishes containing yeast nitrogen base-complete medium (YNB-CM; 0.17% YNB without amino acids, 1.5% granulated agar, 1% maltose, 0.1% PHP, and 0.3% asparagine). Two (2×4 cm) strips of filter paper were placed inside the lid of the plate and 200 μL of individual mono- or diterpenes or a mixture of monoterpenes (MT) were added onto the filter paper. The glass plates were sealed with DuraSeal™ film (Laboratory Sealing Film, VWR, cat #89031-573) and incubated at ˜22° C. in a sealed glass container for 7 days or until the mycelium reached the edge of the plates. Colony diameters were measured daily.
Agrobacterium GV3101, a laboratory stock, was used to transform G. clavigera. The whole gene open reading frame (ORF) encoding GcABC-G1 in G. clavigera was replaced with the selective gene marker hygromycin B (hph). Gene replacement (deletion) was verified by PCR amplification of adjacent regions, target region and selective marker gene, and copy numbers were determined by southern blot. The G. clavigera GcABC-G1 deletion mutant was designated mutant Δgcabc-g1.
(§3) Colony morphologies and growth rates were examined for G. clavigera WT and mutant Δgcabc-g1 grown on malt extract agar (MEA) in the presence and absence of 200 μL of a mixture of monoterpenes as described in Example 3.A.1. above. Fungal growth rates were calculated (mm/day). Mycelium growth rates were also determined in the presence or absence of 200 μL of individual monoterpenes, including R-(+)-limonene, 3-carene, α-pinene and β-pinene, or 200 μL of a mixture of monoterpenes (R-(+)-limonene, 3-carene, α-pinene and β-pinene at a ratio of 5:3:1:1). Fungal spores were incubated for 3 days on MEA overlaid with cellophane (Amersham Biosciences, cat #80611781); then the young mycelia were treated with individual monoterpenes or a mixture of monoterpenes (200 μL) for 3-4 days before being transferred onto YNB. In YNB, monoterpenes were provided on filter paper as described in Example 3.A.1. and if necessary were re-supplied biweekly until the mycelia covered at least half of the media surface (3-4 weeks). Colony diameters were measured daily. Fungal growth rates were calculated (mm/day). Results were calculated as the average of 5 replicates and standard deviation was calculated.

G. clavigera WT [4] = assay: Mycelium growth on MEA with monoterpenes; type: cell-based, Grosmannia clavigera; settings: for growth delay of G. clavigera WT: 200 μL individual monoterpene or MT; for fungal growth rate, G. clavigera WT: 200 μL monoterpene, linear phase after delay
Method: as §2, §3

Sc-ABC = assay: Yeast cell survival, dilution plate assay; type: cell-based, Saccharomyces cerevisiae; settings: for Sc-ABC cells survived relative to Sc-V: one-hour treatment, 5 μL monoterpene, counted after 4 days; for Observation (B) Transformed Sc survival: GcABC-G1-dependent difference, Sc-ABC versus Sc-V; for relative inhibition of the yeast GcABC-G1 transformant by individual monoterpenoids: individual monoterpenoids compared
Method: The survival of Sc-V and Sc-ABC with individual monoterpenes was shown using a dilution plate assay. Overnight yeast cultures grown in SG broth were diluted to an OD600 of 0.2 and further grown to an OD600 of 0.4 at 28° C. The yeast cells were diluted to an appropriate density that was spread on SG media in Petri dishes glass (10^5 per petri dish). The yeast cells were treated for one hour with a specific monoterpene (5 μL) diluted in 245 μL ethanol; the solution was applied on five small filter papers placed inside the lid and the glass plates were sealed with DuraSeal film. After one-hour incubation, the chemical was removed and plates were further incubated for 4 days at 28° C. The numbers of surviving cells with and without monoterpene treatments were counted.

Wildtype G. clavigera = assay: Growth on YNB with monoterpenes as sole carbon source; type: cell-based, Grosmannia clavigera; settings: 200 μL, 4 weeks
Method: (§4) Fungal spores were incubated for 3 days on 1% malt extract agar (MEA) overlaid with cellophane (Amersham Biosciences, cat #80611781), then the young mycelia were treated with a mixture of monoterpenes (200 μL) for 3-4 days before being transferred onto yeast nitrogen base (YNB) medium with a mixture of monoterpenes (MT) as sole carbon source (YNB+MT; […] YNB without amino acids, but with ammonium sulphate) in glass plates. The synthetic monoterpenoid blend contained R-(+)-limonene, 3-carene, α-pinene and β-pinene at a ratio of 5:3:1:1. If necessary monoterpenes were re-supplied biweekly until the mycelia covered at least half of the media surface (3-4 weeks). RNA-seq analysis was performed after 10 days. G. clavigera grown on YNB+1% mannose as the sole carbon source was used as a control.
(§5) Experiments were performed as described in Example 3.A.2. Growth of wildtype G. clavigera and the mutant Δgcabc-g1 was determined utilizing yeast nitrogen base (YNB)+either 10 μL or 200 μL of (+)-limonene, α-pinene or β-pinene. Growth was determined after 4 weeks. Monoterpenes were re-supplied every 2 weeks. Growth on YNB alone was used as a negative control. Growth on YNB+1% mannose was used as a positive control.

mutant Δgcabc-g1 [5] = assay: as above; type: cell-based, Grosmannia clavigera
Method: as §4, §5

mutant Δgcabc-g1 [6] = assay: Growth on MEA with individual diterpenes; type: cell-based, Grosmannia clavigera; settings: individual diterpene in MEA (0.1% per FIG. 8), pH ~8.0
Method: (§6) Growth rates were examined for G. clavigera WT and the mutant Δgcabc-g1 grown on MEA in the presence or absence of 200 μL of abietic acid, dehydroabietic acid and isopimaric acid as described in Example 3.A.2. Each diterpene was dissolved in a basic NaOH solution before being added into the MEA medium; the final pH of the medium was ˜8.0. Growth rates were calculated daily (mm/day). The results are shown in FIG. 8, which indicates growth rate in mm/24 hr for the average of three replicates. Error bar represents standard deviation.

G. clavigera WT [7] = assay: Growth on MEA with individual diterpenes; type: cell-based, Grosmannia clavigera; settings: individual diterpene in MEA (0.1% per FIG. 8), pH ~8.0
Method: as §6

O. piceae = assay: Growth on YNB with quinic acid as sole carbon source; type: cell-based, Ophiostoma piceae; settings: YNB media
Source text: The cluster contains seven genes that include a quinate permease, two regulatory genes, one acting as an activator and the other as a repressor, and the four genes of the quinate/shikamate catabolic pathway (Asch et al. (1991) Mol Gen Genet 230(3):337-344, Giles et al. J Hered 82(1):1-7). The latter four catabolic genes (OPP_08735 to OPP_08738) reveal that O. piceae uses quinic acid in wood as a carbon source. While this gene cluster is reported in many fungi, this gene cluster was not identified in G. clavigera. […] Finally, a secreted lipase (OPP_00605) with a predicted triglycerides degradation activity was identified; its abundance relative to the control mannose was at least 50-fold.

[8] = MEA, 200 μL monoterpene, 6 days

Row | Structure (SMILES) | Observation (A) Gc spore survival ([1]; {}) | growth delay of mutant Δgcabc-g1 (mutant Δgcabc-g1 [3]) | growth delay of G. clavigera WT (G. clavigera WT [4]) | Sc-ABC cells survived relative to Sc-V (Sc-ABC) | growth with monoterpene as sole carbon source, wildtype G. clavigera (Wildtype G. clavigera) | spore germination, mutant Δgcabc-g1 [1, 8] | Observation (B) Transformed Sc survival (Sc-ABC) | also measured
1 | CC1=CCC2CC1C2(C)C (racemic) [α-pinene] | + (Difference between with and without GcABC-G1 is less than 50%, P-value < 0.01) | 1 days | not | not significantly different | not able to utilize | – | – | spore germination reduced, mutant Δgcabc-g1 ([1]; MEA, 200 μL monoterpene, 6 days, relative to non-treated control): 30%; spore germination inhibition, G. clavigera [2]: not inhibited; fungal growth rate, mutant Δgcabc-g1 (mutant Δgcabc-g1 [3]): ~7 mm/day; fungal growth rate, G. clavigera WT (G. clavigera WT [4]): ~7 mm/day
2 | C=C(C)C1CC=C(C)CC1 (single isomer, unassigned; (+)) [(+)-limonene, R-(+)-limonene] | – | 2 days | 1 days | approximately 7 times | grew | completely prevent spore germination | +++ (Difference between with and without GcABC-G1 is more than 50%, P-value < 0.01) | Observation (A) Gc spore survival ([1]; GcABC-G1-dependent difference, Gc versus Δgcabc-g1): + (Difference between with and without GcABC-G1 is less than 50%, P-value < 0.01); spore germination partially reduced, G. clavigera [2]: ~70%; growth rate of mutant Δgcabc-g1 lower than G. clavigera WT (mutant Δgcabc-g1 [3]): 52%; relative inhibition of the yeast GcABC-G1 transformant by individual monoterpenoids (Sc-ABC): least inhibitory effect; fate of mutant Δgcabc-g1 on YNB with monoterpene (mutant Δgcabc-g1 [5]; 10 μL): survived, but did not grow; fate of mutant Δgcabc-g1 on YNB with monoterpene (mutant Δgcabc-g1 [5]; 200 μL): killed
3 | CC1=CCC2C(C1)C2(C)C (centres unmarked) [3-carene] | +++ (Difference between with and without GcABC-G1 is more than 50%, P-value < 0.01) | 2 days | 1 days | approximately 30 times | – | completely prevent spore germination | +++ (Difference between with and without GcABC-G1 is more than 50%, P-value < 0.01) | spore germination inhibition, G. clavigera [2]: not inhibited; fungal growth rate, mutant Δgcabc-g1 (mutant Δgcabc-g1 [3]): 5 to 6 mm/day; fungal growth rate, G. clavigera WT (G. clavigera WT [4]): 5 to 6 mm/day
4 | C=C1CC[C@H]2C[C@@H]1C2(C)C [(−)-β-pinene, (1S)-(−)-β-Pinene] | + (Difference between with and without GcABC-G1 is less than 50%, P-value < 0.01) | up to 3 days | – | ~3 times | not able to utilize | completely prevent spore germination | +++ (Difference between with and without GcABC-G1 is more than 50%, P-value < 0.01) | spore germination partially reduced, G. clavigera [2]: ~70%; growth rate of mutant Δgcabc-g1 lower than G. clavigera WT (mutant Δgcabc-g1 [3]): 60%; relative inhibition of the yeast GcABC-G1 transformant by individual monoterpenoids (Sc-ABC): strongest inhibition effect
5 | CC(C)C1=CC2=CC[C@@H]3[C@](C)(CCC[C@@]3(C)C(=O)O)[C@H]2CC1 [abietic acid] | – | – | – | – | – | – | – | growth inhibition, mutant Δgcabc-g1 (mutant Δgcabc-g1 [6]): only slightly inhibited growth; growth inhibition, G. clavigera WT (G. clavigera WT [7]): only slightly inhibited growth
6 | C=C[C@@]1(C)CC[C@H]2C(=CC[C@@H]3[C@]2(C)CCC[C@@]3(C)C(=O)O)C1 [isopimaric acid] | – | – | – | – | – | – | – | growth inhibition, mutant Δgcabc-g1 (mutant Δgcabc-g1 [6]): only slightly inhibited growth; growth inhibition, G. clavigera WT (G. clavigera WT [7]): only slightly inhibited growth
7 | O=C(O)[C@]1(O)C[C@@H](O)[C@@H](O)[C@H](O)C1 [quinic acid] | – | – | – | – | – | – | – | growth of O. piceae with quinic acid as sole carbon source (O. piceae): grows
